Patent publication US8686036B2, “Methods of controlling heart rate while minimizing and/or controlling hypotension” (Baxter International Inc., priority 2011, dated 2014)
Structures can show the parent of a compound that is named as a salt. One block for each molecule: values may come before it.

Tests used:
[1] = Anesthetized mongrel dog model of the hypotensive potential of esmolol infusions; type: in vivo; settings: for decrease in mean arterial pressure (MAP) from pre-infusion baseline, percent change: high dose infusion protocols, FIG. 10: 2000 μg/kg/min RS, 1000 μg/kg/min S, 1000 μg/kg/min R
Protocol: A model system utilizing anesthetized mongrel dogs was established in order to predict the hypotensive potential of esmolol hydrochloride injection in human patients. One dog was administered a formulation containing racemic esmolol hydrochloride at a loading dose of 600 μg/kg/min for 3 minutes followed by a maintenance infusion of 300 μg/kg/min for 10 minutes (referred to as 600RS/300RS) followed by a washout period (FIG. 1). In this and subsequent figures, the duration of infusion of the various medicaments is indicated by a coded horizontal line, parallel to the time axis. This protocol was repeated by administering 2000 μg/kg/min for 3 minutes followed by a maintenance infusion of 1000 μg/kg/min for 10 minutes (referred to as 2000RS/1000RS) and then by administering 400 μg/kg/min for 3 minutes followed by a maintenance infusion of 200 μg/kg/min for 10 minutes (referred to as 400RS/200RS). Mean arterial blood pressure and heart rate were monitored throughout the experiment.
While the doses administered to the dogs in the experiments described herein were larger than typical clinical doses, the doses were administered in order to increase repeatability and induce acute hypotension in close to 100% of the dogs by sufficiently increasing the effect level above background noise. Moreover, relative to esmolol administration in humans, the dog model replicates within experimental error the same dependence of mean arterial blood pressure versus infusion rate. Therefore, the conclusions reached at these relatively higher dose levels in dogs are relevant to minimization of adverse effects at lower doses in humans.
In initial experiments, the hypotensive potential of a composition comprising the S-isomer of esmolol hydrochloride was compared to a composition comprising the racemic formulation. Mean arterial blood pressure, cardiac output, and systemic vascular resistance were monitored throughout the experiments. Cardiac output and systemic vascular resistance were evaluated to understand the cause of the hypotension (i.e., decrease in cardiac output and/or decrease in systemic vascular resistance).
Each of four mongrel dogs was administered increasing doses of esmolol hydrochloride (FIGS. 2-5). Two dogs (D00028 and DG0029) received 150 μg/kg/min of the S-isomer formulation until mean arterial pressure reached a steady state, at which time the animal was immediately switched over to 300 μg/kg/min of the racemic formulation (this protocol is referred to as 150S/300RS in FIGS. 3a and 4a). Once a steady state was reached the infusion was stopped and was followed by a washout period. A similar protocol was repeated in both dogs using 300 μg/kg/min of the S-isomer of esmolol followed by administration of 600 μg/kg/min of the racemic mixture of esmolol (this protocol is 300S/600RS in FIGS. 3b and 4b). A final protocol involved administration of 1000 μg/kg/min of the S-isomer of esmolol followed by administration of 2000 μg/kg/min of the racemic mixture of esmolol followed by 1000 μg/kg/min of the S-isomer of esmolol (this protocol is referred to as 1000S/2000RS/1000S in FIGS. 3c and 4c).
A similar series of protocols were repeated with the other two dogs (DG0027 and DG0030) except the racemic mixture of esmolol was administered before the S-isomer. In other words, 300 μg/kg/min of the racemic mixture of esmolol was administered, followed by administration of 150 μg/kg/min of the S-isomer of esmolol (this protocol is referred to as 300RS/150S in FIGS. 2a and 5a), 600 μg/kg/min of the racemic mixture of esmolol was administered, followed by administration of 300 μg/kg/min of the S-isomer of esmolol (this protocol is referred to as 600RS/300S in FIGS. 2b and 5b), and 2000 μg/kg/min of the racemic mixture of esmolol was administered, followed by administration of 1000 μg/kg/min of the S-isomer of esmolol, and then 2000 μg/kg/min of the racemic mixture of esmolol again (this protocol is referred to as 2000RS/1000S/2000RS in FIGS. 2c and 5c)]. […]

[2] = cited from earlier work
[3] = Superimposition of dog systolic blood pressure results with human meta-analysis (Yu et al.); type: in vivo; settings: at a given dose, FIG. 13, human data of Yu et al.
From the text: The esmolol doses administered to the dogs in the experiments described herein needed to be larger than typical clinical doses used in humans in order to increase repeatability and induce acute hypotension in close to 100% of the dogs by sufficiently increasing the effect level above background noise. To confirm that the results obtained herein with mongrel dogs are clinically relevant, data from the experimental results obtained herein were superimposed with the maximal weighted mean difference in systolic blood pressure results obtained by Yu et al. in a meta-analysis of randomized controlled clinical trials with esmolol hydrochloride (Yu et al., Anesth Analg. 2011 February; 112(2):267-81).

[4] = test system: isoproterenol-induced tachycardia; assay: Isoproterenol challenge (isoproterenol-induced tachycardia) in dogs after esmolol infusion; type: in vivo, dog; settings: for reduction in mean arterial pressure: 10 minutes
Protocol: The purpose of this experiment was to determine if the attenuated hypotension (as assessed by mean arterial blood pressure end point) observed in Example 2 following administration of the S-isomer was associated with reduced efficacy (i.e., ability to control isoproterenol-induced tachycardia) as compared with the racemic formulations.
One dog was administered a bolus dose of isoproterenol (0.25 μg/kg) to establish a baseline heart rate response (FIG. 6a). Isoproterenol is a non-selective […] adrenergic agonist capable of inducing tachycardia. After a washout period, the racemic formulation (RS) was administered at 90 μg/kg/min for 10 minutes immediately followed by an isoproterenol challenge. After a washout period, the S-isomer formulation (S) was administered at 45 μg/kg/min for 10 minutes immediately followed by another isoproterenol challenge. This protocol was repeated using 150 μg/kg/min S-isomer followed by 300 μg/kg/min racemic formulation (FIG. 6b) then 2000 μg/kg/min racemic formulation followed by 1000 μg/kg/min S-isomer (FIG. 6c).
The experimental protocol was carried out essentially as described in Example 3. In short, each dog was administered racemic esmolol (RS) at the indicated dose for 10 minutes immediately followed by an isoproterenol challenge (a bolus dose of isoproterenol at 0.25 μg/kg). After a washout period, the S-isomer formulation (S) was administered at an equitherapeutic dose for 10 minutes immediately followed by another isoproterenol challenge. This protocol was performed at 90 μg/kg/min RS/45 μg/kg/min S (5 dogs), 300 μg/kg/min RS/150 μg/kg/min S (1 dog), 600 μg/kg/min RS/300 μg/kg/min S (3 dogs), 1000 μg/kg/min RS/500 μg/kg/min S (4 dogs), and 2000 μg/kg/min RS/1000 μg/kg/min S (3 dogs).
In order to better estimate the true differential effect in hypotensive potential between racemic esmolol and the S-isomer of esmolol at the lower dose range, data from other dogs that were not part of the isoproterenol challenge experiments, but were otherwise treated identically, were combined with the data set from FIG. 12A and presented in FIG. 12B. The additional data points were only from those dogs where a stated dose was administered first or where a sufficient wash-out period preceded the stated dose as to avoid any confounding variables. […] Thus, the lack of significant differentiation in mean arterial pressure seen at the lower doses in FIG. 12A was likely due to the relatively smaller sample size and biological variability.

[5] = Anesthetized mongrel dog model of the hypotensive potential of esmolol infusions; type: in vivo
[6] = test system: beta-adrenergic; settings: WO 88/01614; cited from earlier work
[7] = Example 1, one dog, 400RS/200RS, 600RS/300RS, 2000RS/1000RS

SMILES: COC(=O)CCc1ccc(OCC(O)CNC(C)C)cc1 (racemic) [esmolol hydrochloride, methyl-3-[4-(2-hydroxy-3-isopropylamino)propoxy]phenylpropionate hydrochloride]
heart rate response [1, 7]: dose-dependent reflex tachycardia
mean arterial blood pressure response [1, 7]: clear dose-dependent decrease in mean arterial blood pressure
mean arterial pressure response ([1]; Example 2, four dogs, 300, 600, 2000 μg/kg/min, before or after the S-isomer): dose-dependent decrease in mean arterial pressure in all four dogs
decrease in MAP from end of first infusion to end of second infusion ([1]; FIG. 11, initial state S-isomer formulation, then RS racemic mixture): 32%
decrease in mean arterial pressure (MAP) from pre-infusion baseline, percent change [1]: 40%
patients who experienced hypotension ([2]; clinical trials, packaging insert): 20-50%
acute hypotension in patients of Asian ancestry ([2]; loading infusion 500 μg/kg body weight per minute, Ko et al.): all patients administered this dosage experienced acute hypotension
severity of clinical hypotension (systolic blood pressure) in human patients relative to the dog model [3]: more than two times as severe
mean arterial blood pressure response ([4]; Example 3, one dog, RS 90, 300, 2000 μg/kg/min vs S 45, 150, 1000 μg/kg/min): greater dose-dependent decrease in mean arterial blood pressure relative to the S-isomer
reduction in mean arterial pressure ([4]; Example 5, infusion rate 1000 μg/kg/min): about 20 mmHg

decrease in mean arterial pressure (MAP) from pre-infusion baseline, percent change [1]: 19%
SMILES: COC(=O)CCc1ccc(OC[C@H](O)CNC(C)C)cc1 (single isomer, unassigned) [R-isomer]
ability to lower heart rate when experimentally increased ([1]; Examples 1-4): no apparent, inherent ability to lower heart rate
cardiovascular changes following administration ([5]; Example 4): qualitatively identical to those following the administration of the racemic formulation

increase in MAP from end of first infusion to end of second infusion ([1]; FIG. 11, initial state RS racemic mixture, then S-isomer): 34%
decrease in mean arterial pressure (MAP) from pre-infusion baseline, percent change [1]: 13%
hypotensive effect (reduction in mean arterial pressure) vs racemic esmolol ([4]; Example 5, doses greater than 600 μg/kg/min racemic esmolol/300 μg/kg/min S-isomer formulation): differed significantly
reduction in mean arterial pressure ([4]; Example 5, equitherapeutic dose 500 μg/kg/min): about 10 mmHg
SMILES: COC(=O)CCc1ccc(OC[C@@H](O)CNC(C)C)cc1.Cl (single isomer, unassigned) [S-isomer]
hypotension (mean arterial blood pressure) at the high dose infusion protocol ([1]; Example 2, 1000 μg/kg/min S-isomer vs 2000 μg/kg/min racemic mixture): significantly less hypotension relative to the racemic formulation
mean arterial blood pressure during the 1000S phase ([1]; Example 2, 2000RS/1000S/2000RS protocol, FIG. 2c): increased
potency as beta-adrenergic-blocking agent relative to an equivalent amount of the racemic mixture [6]: about twice
mean arterial blood pressure at the high dose infusion rate relative to the racemic formulation ([5]; Example 4, 1000 μg/kg/min S after 2000 μg/kg/min RS): improved (or increased)
hypotension (mean arterial blood pressure) at the high infusion rate ([4]; Example 3, 1000 μg/kg/min S-isomer vs 2000 μg/kg/min racemic formulation): significantly less hypotension relative to the racemic formulation
efficacy in reducing isoproterenol-induced tachycardia ([4]; Example 3, equitherapeutic amounts (half the racemic dose)): same degree of efficacy in reducing isoproterenol-induced tachycardia as compared with the racemic formulation
percent reduction in heart rate following isoproterenol challenge vs racemic esmolol ([4]; Example 5, equitherapeutic dose (half the racemic dose), all doses, FIG. 12A): essentially identical
efficacy in reducing isoproterenol-induced tachycardia ([4]; Example 5, equitherapeutic doses, across all doses): same degree of efficacy in reducing isoproterenol-induced tachycardia as compared with the racemic formulation
difference in mean arterial pressure vs racemic esmolol, pooled data ([4]; FIG. 12B, 600 μg/kg/min racemic esmolol (7 dogs)/300 μg/kg/min S-isomer (5 dogs)): statistically significant difference in mean arterial pressure
